Assay [1] deals with T1, type 1 ryanodine receptor (RyR1) (Mus musculus, UniProt E9PZQ0).
T1 construct: recombinant WT RyR1 on HEK293 ER microsomes (also endogenous RyR1 from mouse skeletal muscle)
Description: [3H]simvastatin radioligand binding; single-channel recordings show activation.

For the next assay, the target named is T2, RyR1 BSM1 mutant (Mus musculus, UniProt E9PZQ0, W4792A).
T2 construct: recombinant RyR1 on HEK293 ER microsomes
Briefly: [3H]simvastatin radioligand binding.

T1 sequence (E9PZQ0 whole entry): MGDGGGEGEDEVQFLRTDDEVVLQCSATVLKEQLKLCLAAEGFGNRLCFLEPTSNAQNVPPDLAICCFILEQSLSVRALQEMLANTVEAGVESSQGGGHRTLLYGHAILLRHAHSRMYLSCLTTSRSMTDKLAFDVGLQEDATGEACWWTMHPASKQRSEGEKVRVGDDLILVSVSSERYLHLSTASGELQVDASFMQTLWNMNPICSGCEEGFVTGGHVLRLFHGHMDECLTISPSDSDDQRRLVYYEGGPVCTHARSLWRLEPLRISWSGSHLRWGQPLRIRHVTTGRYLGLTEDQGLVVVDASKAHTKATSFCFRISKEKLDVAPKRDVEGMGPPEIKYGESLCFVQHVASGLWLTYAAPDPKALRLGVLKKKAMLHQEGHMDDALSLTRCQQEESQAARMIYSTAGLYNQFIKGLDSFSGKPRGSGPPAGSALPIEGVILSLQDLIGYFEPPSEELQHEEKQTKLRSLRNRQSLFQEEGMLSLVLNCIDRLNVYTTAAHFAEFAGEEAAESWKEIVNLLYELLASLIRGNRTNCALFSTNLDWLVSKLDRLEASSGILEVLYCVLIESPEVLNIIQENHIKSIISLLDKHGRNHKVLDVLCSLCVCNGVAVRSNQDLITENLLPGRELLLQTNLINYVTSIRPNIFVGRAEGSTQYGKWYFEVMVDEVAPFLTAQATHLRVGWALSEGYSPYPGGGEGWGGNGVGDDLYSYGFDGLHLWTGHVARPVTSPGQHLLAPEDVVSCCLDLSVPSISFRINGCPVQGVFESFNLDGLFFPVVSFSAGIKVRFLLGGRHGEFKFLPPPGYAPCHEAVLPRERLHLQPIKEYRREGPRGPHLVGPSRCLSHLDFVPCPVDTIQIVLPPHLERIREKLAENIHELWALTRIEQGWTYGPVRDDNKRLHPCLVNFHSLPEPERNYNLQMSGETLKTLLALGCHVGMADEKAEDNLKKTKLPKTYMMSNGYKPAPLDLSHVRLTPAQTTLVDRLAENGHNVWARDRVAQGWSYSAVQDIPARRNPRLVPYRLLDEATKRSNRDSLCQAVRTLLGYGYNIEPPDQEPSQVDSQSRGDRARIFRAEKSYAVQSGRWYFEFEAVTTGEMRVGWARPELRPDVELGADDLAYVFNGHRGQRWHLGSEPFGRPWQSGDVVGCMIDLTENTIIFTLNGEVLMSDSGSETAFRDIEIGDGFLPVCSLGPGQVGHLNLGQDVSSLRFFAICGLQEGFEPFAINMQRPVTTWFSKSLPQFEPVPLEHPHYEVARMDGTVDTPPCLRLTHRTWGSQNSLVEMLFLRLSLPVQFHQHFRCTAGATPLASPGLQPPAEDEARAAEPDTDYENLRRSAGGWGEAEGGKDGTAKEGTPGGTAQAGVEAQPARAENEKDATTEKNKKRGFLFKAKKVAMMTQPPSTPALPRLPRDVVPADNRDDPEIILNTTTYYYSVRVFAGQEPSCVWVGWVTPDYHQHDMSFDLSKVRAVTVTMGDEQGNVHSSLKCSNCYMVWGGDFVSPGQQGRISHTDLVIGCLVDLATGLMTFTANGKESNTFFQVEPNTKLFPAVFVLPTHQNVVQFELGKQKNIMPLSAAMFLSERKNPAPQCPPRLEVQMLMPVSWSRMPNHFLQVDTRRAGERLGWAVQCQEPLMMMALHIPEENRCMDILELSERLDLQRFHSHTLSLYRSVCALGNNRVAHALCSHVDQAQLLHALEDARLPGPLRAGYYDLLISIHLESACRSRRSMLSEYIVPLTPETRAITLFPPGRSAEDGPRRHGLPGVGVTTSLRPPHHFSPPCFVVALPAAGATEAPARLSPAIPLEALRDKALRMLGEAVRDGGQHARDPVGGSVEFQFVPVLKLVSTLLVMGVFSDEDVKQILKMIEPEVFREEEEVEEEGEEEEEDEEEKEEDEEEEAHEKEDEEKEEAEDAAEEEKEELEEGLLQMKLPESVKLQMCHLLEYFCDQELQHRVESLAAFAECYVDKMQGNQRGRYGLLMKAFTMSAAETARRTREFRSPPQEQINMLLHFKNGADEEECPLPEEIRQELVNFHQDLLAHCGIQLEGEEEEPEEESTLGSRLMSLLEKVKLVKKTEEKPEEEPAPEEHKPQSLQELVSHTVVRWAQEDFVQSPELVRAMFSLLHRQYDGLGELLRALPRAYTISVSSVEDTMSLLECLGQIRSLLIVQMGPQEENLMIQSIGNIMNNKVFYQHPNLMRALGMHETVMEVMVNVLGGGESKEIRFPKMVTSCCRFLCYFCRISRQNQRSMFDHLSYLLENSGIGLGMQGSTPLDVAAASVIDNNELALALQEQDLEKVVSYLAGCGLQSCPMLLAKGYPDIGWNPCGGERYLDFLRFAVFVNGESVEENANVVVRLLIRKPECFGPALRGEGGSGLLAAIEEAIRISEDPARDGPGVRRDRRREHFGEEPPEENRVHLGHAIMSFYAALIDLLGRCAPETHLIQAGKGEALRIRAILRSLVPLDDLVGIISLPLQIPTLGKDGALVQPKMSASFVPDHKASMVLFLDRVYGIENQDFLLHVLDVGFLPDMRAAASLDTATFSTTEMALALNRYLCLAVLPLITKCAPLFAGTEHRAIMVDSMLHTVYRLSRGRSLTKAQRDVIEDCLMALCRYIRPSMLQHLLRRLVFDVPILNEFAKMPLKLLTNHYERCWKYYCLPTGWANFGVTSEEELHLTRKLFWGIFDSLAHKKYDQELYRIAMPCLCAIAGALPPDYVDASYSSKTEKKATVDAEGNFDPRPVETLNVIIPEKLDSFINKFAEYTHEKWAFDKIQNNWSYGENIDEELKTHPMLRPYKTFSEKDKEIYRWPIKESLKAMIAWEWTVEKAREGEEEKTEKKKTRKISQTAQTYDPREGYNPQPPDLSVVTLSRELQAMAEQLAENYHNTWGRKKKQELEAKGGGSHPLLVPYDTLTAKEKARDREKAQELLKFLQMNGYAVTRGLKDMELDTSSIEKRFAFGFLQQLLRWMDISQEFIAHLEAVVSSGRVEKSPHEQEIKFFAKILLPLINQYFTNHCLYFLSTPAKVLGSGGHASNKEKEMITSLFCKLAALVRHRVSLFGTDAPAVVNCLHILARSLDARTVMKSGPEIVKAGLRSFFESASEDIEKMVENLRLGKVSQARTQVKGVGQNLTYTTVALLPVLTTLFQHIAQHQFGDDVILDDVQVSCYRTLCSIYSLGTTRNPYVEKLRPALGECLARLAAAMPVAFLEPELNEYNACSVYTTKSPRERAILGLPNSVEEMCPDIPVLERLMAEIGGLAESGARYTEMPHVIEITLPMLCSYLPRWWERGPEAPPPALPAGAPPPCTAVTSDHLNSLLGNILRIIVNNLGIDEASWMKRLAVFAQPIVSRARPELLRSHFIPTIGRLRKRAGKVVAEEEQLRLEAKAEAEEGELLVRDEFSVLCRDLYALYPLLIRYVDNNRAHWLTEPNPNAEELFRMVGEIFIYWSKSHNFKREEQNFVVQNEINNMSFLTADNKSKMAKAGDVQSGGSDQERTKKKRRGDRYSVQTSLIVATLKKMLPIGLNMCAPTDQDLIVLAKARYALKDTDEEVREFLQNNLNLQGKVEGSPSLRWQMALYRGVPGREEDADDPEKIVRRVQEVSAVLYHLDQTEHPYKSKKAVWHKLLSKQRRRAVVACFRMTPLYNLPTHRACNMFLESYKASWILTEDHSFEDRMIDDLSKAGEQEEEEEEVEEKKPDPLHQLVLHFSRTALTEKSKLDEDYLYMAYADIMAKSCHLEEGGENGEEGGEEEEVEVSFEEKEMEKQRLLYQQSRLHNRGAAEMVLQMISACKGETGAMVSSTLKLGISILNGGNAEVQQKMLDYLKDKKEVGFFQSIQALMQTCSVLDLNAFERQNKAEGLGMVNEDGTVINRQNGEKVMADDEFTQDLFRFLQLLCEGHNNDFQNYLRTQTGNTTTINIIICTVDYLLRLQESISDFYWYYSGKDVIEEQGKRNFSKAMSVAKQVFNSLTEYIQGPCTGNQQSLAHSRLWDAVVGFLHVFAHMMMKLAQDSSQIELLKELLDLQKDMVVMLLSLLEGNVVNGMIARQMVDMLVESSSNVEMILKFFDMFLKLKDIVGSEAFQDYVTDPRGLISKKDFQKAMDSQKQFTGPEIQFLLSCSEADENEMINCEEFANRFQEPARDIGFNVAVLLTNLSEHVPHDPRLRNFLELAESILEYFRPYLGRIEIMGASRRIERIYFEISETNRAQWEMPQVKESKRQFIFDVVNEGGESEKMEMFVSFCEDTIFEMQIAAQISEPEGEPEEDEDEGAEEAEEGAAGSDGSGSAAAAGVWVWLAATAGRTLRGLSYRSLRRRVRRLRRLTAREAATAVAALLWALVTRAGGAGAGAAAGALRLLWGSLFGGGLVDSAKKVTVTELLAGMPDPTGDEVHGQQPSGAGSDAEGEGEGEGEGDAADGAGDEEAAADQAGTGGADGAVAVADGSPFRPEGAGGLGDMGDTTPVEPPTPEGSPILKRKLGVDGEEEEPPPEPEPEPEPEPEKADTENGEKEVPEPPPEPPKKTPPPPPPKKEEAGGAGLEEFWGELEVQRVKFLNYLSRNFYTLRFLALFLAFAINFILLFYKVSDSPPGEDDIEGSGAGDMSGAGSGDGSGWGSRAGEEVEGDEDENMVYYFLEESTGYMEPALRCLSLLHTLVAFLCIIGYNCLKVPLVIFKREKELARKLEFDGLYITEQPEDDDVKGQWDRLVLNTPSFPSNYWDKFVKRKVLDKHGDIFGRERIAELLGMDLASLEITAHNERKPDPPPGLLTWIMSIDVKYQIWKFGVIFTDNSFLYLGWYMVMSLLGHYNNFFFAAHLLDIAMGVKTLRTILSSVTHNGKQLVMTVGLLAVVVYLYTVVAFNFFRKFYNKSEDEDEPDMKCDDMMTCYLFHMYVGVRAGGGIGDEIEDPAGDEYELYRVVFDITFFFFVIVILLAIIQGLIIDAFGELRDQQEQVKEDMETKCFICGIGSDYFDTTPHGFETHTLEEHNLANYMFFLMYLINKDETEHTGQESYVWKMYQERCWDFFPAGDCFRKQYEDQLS
T2 sequence (E9PZQ0 whole entry W4792A): as the sequence (E9PZQ0 whole entry) above, with W4792A counted along it

Regarding `CCC(C)(C)C(=O)O[C@H]1C[C@@H](C)C=C2C=C[C@H](C)[C@H](CC[C@@H](O)C[C@@H](O)CC(=O)O)[C@H]21` [simvastatin acid], the Kd was 0.69 µM in assay [1] and around 7.1 µM on RyR1 BSM1 mutant.

Source of the values: publication PMC12700559, “Structural basis for simvastatin-induced skeletal muscle weakness associated with type 1 ryanodine receptor T4709M mutation” (The Journal of Clinical Investigation, 2025).
